For 25 molecules, IC50 results are on record in patent publication EP2951180B1, “2,6,7,8 SUBSTITUTED PURINES AS HDM2 INHIBITORS” (Merck Sharp & Dohme Corp., priority 2013, dated 2014).

The target in this experiment is T1, HDM2 (Homo sapiens, UniProt Q00987).
T1 construct: Thioredoxin (N); made in house; host or cells: E. coli strain BL21(DE3)Rosetta
T1 sequence (Q00987 17-125): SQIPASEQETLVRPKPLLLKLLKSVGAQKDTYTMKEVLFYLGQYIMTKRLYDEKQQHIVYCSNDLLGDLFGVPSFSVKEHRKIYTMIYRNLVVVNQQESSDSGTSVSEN
The experiment can be described thus: HDM2 FRET assay (inhibition of binding of FITC labeled p53-pocket peptide to HDM2). As to conditions: Table 9; read-out: FRET IC50. In a few lines: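 Compounds were tested in 10-point serial dilution against 0.5 nM recombinant HDM2 binding 3 nM fluorescein-labeled p53-pocket peptide. Detection used 0.25 nM terbium cryptate anti-6xHis antibody in PBS buffer containing 0.01% BSA and 0.01% Tween-20.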
As to `CC(C)CC1CCCN1c1nc2nc(-c3noc(=O)[nH]3)nc(N[C@H](C)C3CCC3)c2n1Cc1ccc(C(F)(F)F)cc1` (stereo partly drawn) [Example 9.91, 3-(6-{[(1R)-1-cyclobutylethyl]amino}-8-[2-(2-methylpropyl)pyrrolidin-1-yl]-7-[4-(trifluoromethyl)benzyl]-7H-purin-2-yl)-1,2,4-oxadiazol-5(4H)-one], the IC50 (as a rule, the concentration that inhibits the measured activity by half) is 19.4 nM.
With `CC(C)CC1CCN(c2nc3nc(-c4noc(=O)[nH]4)nc(N[C@H](C)C4CCC4)c3n2Cc2ccc(C(F)(F)F)cc2)C1` (stereo partly drawn) [Example 9.92, 3-(6-{[(1R)-1-cyclobutylethyl]amino}-8-[3-(2-methylpropyl)pyrrolidin-1-yl]-7-[4-(trifluoromethyl)benzyl]-7H-purin-2-yl)-1,2,4-oxadiazol-5(4H)-one], the half-inhibitory concentration (IC50) amounted to 478 nM.
Under `C[C@@H](Nc1nc(-c2noc(=O)[nH]2)nc2nc(N(C)CC3CCOCC3)n(Cc3ccc(C(F)(F)F)cc3)c12)C1CCC1` [Example 9.93, 3-(6-{[(1R)-1-cyclobutylethyl]amino}-8-[methyl(tetrahydro-2H-pyran-4-ylmethyl)amino]-7-[4-(trifluoromethyl)benzyl]-7H-purin-2-yl)-1,2,4-oxadiazol-5(4H)-one] stands 47 nM; under `C[C@@H](Nc1nc(-c2noc(=O)[nH]2)nc2nc(N(C)CCc3ccccc3)n(Cc3ccc(C(F)(F)F)cc3)c12)C1CCC1` [Example 9.94, 3-(6-{[(1R)-1-cyclobutylethyl]amino}-8-[methyl(2-phenylethyl)amino]-7-[4-(trifluoromethyl)benzyl]-7H-purin-2-yl)-1,2,4-oxadiazol-5(4H)-one], 96.7 nM; under `CCN(CC1CCCCC1)c1nc2nc(-c3noc(=O)[nH]3)nc(N[C@H](C)C3CCC3)c2n1Cc1ccc(C(F)(F)F)cc1` [Example 9.95, 3-(6-{[(1R)-1-cyclobutylethyl]amino}-8-[(cyclohexylmethyl)(ethyl)amino]-7-[4-(trifluoromethyl)benzyl]-7H-purin-2-yl)-1,2,4-oxadiazol-5(4H)-one], 27.2 nM.
Under `CCCN(c1nc2nc(-c3noc(=O)[nH]3)nc(N[C@H](C)C3CCC3)c2n1Cc1ccc(C(F)(F)F)cc1)C1CCCCC1` [Example 9.96, 3-(6-{[(1R)-1-cyclobutylethyl]amino}-8-[cyclohexyl(propyl)amino]-7-[4-(trifluoromethyl)benzyl]-7H-purin-2-yl)-1,2,4-oxadiazol-5(4H)-one] stands 16.2 nM.
Turning to `CCN(CCN1CCCC1)c1nc2nc(-c3noc(=O)[nH]3)nc(N[C@H](C)C3CCC3)c2n1Cc1ccc(C(F)(F)F)cc1` [Example 9.97, 3-(6-{[(1R)-1-cyclobutylethyl]amino}-8-[ethyl(2-pyrrolidin-1-ylethyl)amino]-7-[4-(trifluoromethyl)benzyl]-7H-purin-2-yl)-1,2,4-oxadiazol-5(4H)-one], the half-inhibitory concentration (IC50) was determined as 23.9 nM.
As for `C[C@@H](Nc1nc(-c2noc(=O)[nH]2)nc2nc(N(C)CC3(C)CCN(C)C3)n(Cc3ccc(C(F)(F)F)cc3)c12)C1CCC1` (stereo partly drawn) [Example 9.98, 3-(6-{[(1R)-1-cyclobutylethyl]amino}-8-{[(1,3-dimethylpyrrolidin-3-yl)methyl] (methyl)amino}-7-[4-(trifluoromethyl)benzyl]-7H-purin-2-yl)-1,2,4-oxadiazol-5(4H)-one], the concentration for half-maximal inhibition (IC50) turned out to be 71 nM.
`C[C@@H](Nc1nc(-c2noc(=O)[nH]2)nc2nc(N(C)CC3CCCN(C)C3)n(Cc3ccc(C(F)(F)F)cc3)c12)C1CCC1` (stereo partly shown) [Example 9.99]: the IC50 is 45 nM.
For `C[C@@H](Nc1nc(-c2noc(=O)[nH]2)nc2nc(N(C)CCCN3CCCC3)n(Cc3ccc(C(F)(F)F)cc3)c12)C1CCC1` [Example 9.100, 3-(6-{[(1R)-1-cyclobutylethyl]amino}-8-[methyl(3-pyrrolidin-1-ylpropyl)amino]-7-[4-(trifluoromethyl)benzyl]-7H-purin-2-yl)-1,2,4-oxadiazol-5(4H)-one] the value was 148 nM.
In the case of `CC(C)CC1COCCN1c1nc2nc(-c3noc(=O)[nH]3)nc(N[C@H](C)C3CCC3)c2n1Cc1ccc(C(F)(F)F)cc1` (stereo partly drawn) [Example 9.101, 3-(6-{[(1R)-1-cyclobutylethyl]amino}-8-[3-(2-methylpropyl)morpholin-4-yl]-7-[4-(trifluoromethyl)benzyl]-7H-purin-2-yl)-1,2,4-oxadiazol-5(4H)-one], the 50% inhibitory concentration (IC50) worked out at 9.8 nM.
Under `C[C@@H](Nc1nc(-c2noc(=O)[nH]2)nc2nc(N(C)C3CCc4ccccc43)n(Cc3ccc(C(F)(F)F)cc3)c12)C1CCC1` (stereo partly drawn) [Example 9.102, 3-(6-{[(1R)-1-cyclobutylethyl]amino}-8-[2,3-dihydro-1H-inden-1-yl(methyl)amino]-7-[4-(trifluoromethyl)benzyl]-7H-purin-2-yl)-1,2,4-oxadiazol-5(4H)-one] stands 60.7 nM; under `C[C@@H](Nc1nc(-c2noc(=O)[nH]2)nc2nc(N3CCCC3C3CCCCC3)n(Cc3ccc(C(F)(F)F)cc3)c12)C1CCC1` (stereo partly drawn) [Example 9.103, 3-(6-{[(1R)-1-cyclobutylethyl]amino}-8-(2-cyclohexylpyrrolidin-1-yl)-7-[4-(trifluoromethyl)benzyl]-7H-purin-2-yl)-1,2,4-oxadiazol-5(4H)-one], 31.9 nM; under `CC(CN1CCCC1)CN(C)c1nc2nc(-c3noc(=O)[nH]3)nc(N[C@H](C)C3CCC3)c2n1Cc1ccc(C(F)(F)F)cc1` (stereo partly drawn) [Example 9.104, 3-(6-{[(1R)-1-cyclobutylethyl]amino}-8-[methyl(2-methyl-3-pyrrolidin-1-ylpropyl)amino]-7-[4-(trifluoromethyl)benzyl]-7H-purin-2-yl)-1,2,4-oxadiazol-5(4H)-one], 63.2 nM.
Take `C[C@@H](Nc1nc(-c2noc(=O)[nH]2)nc2nc(N3CCCC3Cc3cccnc3)n(Cc3ccc(C(F)(F)F)cc3)c12)C1CCC1` (stereo partly drawn) [Example 9.105, 3-(6-{[(1R)-1-cyclobutylethyl]amino}-8-[2-(pyridin-3-ylmethyl)pyrrolidin-1-yl]-7-[4-(trifluoromethyl)benzyl]-7H-purin-2-yl)-1,2,4-oxadiazol-5(4H)-one]: the 50% inhibitory concentration (IC50) was 14 nM.
Turning to `C[C@@H](Nc1nc(-c2noc(=O)[nH]2)nc2nc(N3CCCCC3c3nccn3C)n(Cc3ccc(C(F)(F)F)cc3)c12)C1CCC1` (stereo partly drawn) [Example 9.106, 3-(6-{[(1R)-1-cyclobutylethyl]amino}-8-[2-(1-methyl-1H-imidazol-2-yl)piperidin-1-yl]-7-[4-(trifluoromethyl)benzyl]-7H-purin-2-yl)-1,2,4-oxadiazol-5(4H)-one], the IC50 came out at 11.5 nM.
On to `Cc1noc(C2CCCCN2c2nc3nc(-c4noc(=O)[nH]4)nc(N[C@H](C)C4CCC4)c3n2Cc2ccc(C(F)(F)F)cc2)n1` (stereo partly drawn) [Example 9.107, 3-(6-{[(1R)-1-cyclobutylethyl]amino}-8-[2-(3-methyl-1,2,4-oxadiazol-5-yl)piperidin-1-yl]-7-[4-(trifluoromethyl)benzyl]-7H-purin-2-yl)-1,2,4-oxadiazol-5(4H)-one], for which the IC50 is 5.18 nM.
As to `CC(C)CN1CCC(CN(C)c2nc3nc(-c4noc(=O)[nH]4)nc(N[C@H](C)C4CCC4)c3n2Cc2ccc(C(F)(F)F)cc2)C1` (stereo partly drawn) [Example 9.108, 3-(6-{[(1R)-1-cyclobutylethyl]amino}-8-(methyl{[1-(2-methylpropyl)pyrrolidin-3-yl]methyl}amino)-7-[4-(trifluoromethyl)benzyl]-7H-purin-2-yl)-1,2,4-oxadiazol-5(4H)-one], the IC50 amounted to 144 nM.
`C[C@@H](Nc1nc(-c2noc(=O)[nH]2)nc2nc(N3CCCCC3Cc3ccccc3)n(Cc3ccc(C(F)(F)F)cc3)c12)C1CCC1` (stereo partly drawn) [Example 9.109, 3-{8-(2-benzylpiperidin-1-yl)-6-{[(1R)-1-cyclobutylethyl]amino}-7-[4-(trifluoromethyl)benzyl]-7H-purin-2-yl}-1,2,4-oxadiazol-5(4H)-one]: the half-maximal inhibitory concentration (IC50) is 59.9 nM.
Turning to `CC1CCCCN1c1nc2nc(-c3noc(=O)[nH]3)nc(N[C@H](C)C3CCC3)c2n1Cc1ccc(C(F)(F)F)cc1` (stereo partly drawn) [Example 9.110, 3-(6-{[(1R)-1-cyclobutylethyl]amino}-8-(2-methylpiperidin-1-yl)-7-[4-(trifluoromethyl)benzyl]-7H-purin-2-yl)-1,2,4-oxadiazol-5(4H)-one], the IC50 stood at 10.3 nM.
Regarding `COCC1CCCCN1c1nc2nc(-c3noc(=O)[nH]3)nc(N[C@H](C)C3CCC3)c2n1Cc1ccc(C(F)(F)F)cc1` (stereo partly drawn) [Example 9.111, 3-(6-{[(1R)-1-cyclobutylethyl]amino}-8-[2-(methoxymethyl)piperidin-1-yl]-7-[4-(trifluoromethyl)benzyl]-7H-purin-2-yl)-1,2,4-oxadiazol-5(4H)-one], the half-maximal inhibitory concentration (IC50) was 8.78 nM.
Take `C[C@@H](Nc1nc(-c2noc(=O)[nH]2)nc2nc(N3CCCCC3c3ccc(F)cc3)n(Cc3ccc(C(F)(F)F)cc3)c12)C1CCC1` (stereo partly drawn) [Example 9.112, 3-(6-{[(1R)-1-cyclobutylethyl]amino}-8-[2-(4-fluorophenyl)piperidin-1-yl]-7-[4-(trifluoromethyl)benzyl]-7H-purin-2-yl)-1,2,4-oxadiazol-5(4H)-one]: the IC50 worked out at 9.55 nM.
As to `C[C@@H](Nc1nc(-c2noc(=O)[nH]2)nc2nc(N3CCCCC3c3cccc(F)c3)n(Cc3ccc(C(F)(F)F)cc3)c12)C1CCC1` (stereo partly drawn) [Example 9.113, 3-(6-{[(1R)-1-cyclobutylethyl]amino}-8-[2-(3-fluorophenyl)piperidin-1-yl]-7-[4-(trifluoromethyl)benzyl]-7H-purin-2-yl)-1,2,4-oxadiazol-5(4H)-one], the half-inhibitory concentration (IC50) amounted to 25.9 nM.
For `C[C@@H](Nc1nc(C(=O)O)nc2nc(N3CCCCC3c3cccnc3)n(Cc3ccc(C(F)(F)F)cc3)c12)C1CCC1` (stereo partly drawn) [Example 9.114, 6-{[(1R)-1-cyclobutylethyl]amino}-8-(2-pyridin-3-ylpiperidin-1-yl)-7-[4-(trifluoromethyl)benzyl]-7H-purine-2-carboxylic acid] the value was 110 nM; for `C[C@@H](Nc1nc(C(=O)O)nc2nc(N3CCCCC3c3ccncc3)n(Cc3ccc(C(F)(F)F)cc3)c12)C1CCC1` (stereo partly drawn) [Example 9.115, 6-{[(1R)-1-cyclobutylethyl]amino}-8-(2-pyridin-4-ylpiperidin-1-yl)-7-[4-(trifluoromethyl)benzyl]-7H-purine-2-carboxylic acid], 16.6 nM.
